Results published in patent US20180237441A1, “Chemical Compounds” (GlaxoSmithKline Intellectual Property (No.2) Limited, priority 2015, published 2018).
Read-outs that look alike come from different tables or passages of the source.

Biological target: T1, PERK (Homo sapiens, UniProt Q9NZJ5)
T1 sequence (Q9NZJ5 30-1116): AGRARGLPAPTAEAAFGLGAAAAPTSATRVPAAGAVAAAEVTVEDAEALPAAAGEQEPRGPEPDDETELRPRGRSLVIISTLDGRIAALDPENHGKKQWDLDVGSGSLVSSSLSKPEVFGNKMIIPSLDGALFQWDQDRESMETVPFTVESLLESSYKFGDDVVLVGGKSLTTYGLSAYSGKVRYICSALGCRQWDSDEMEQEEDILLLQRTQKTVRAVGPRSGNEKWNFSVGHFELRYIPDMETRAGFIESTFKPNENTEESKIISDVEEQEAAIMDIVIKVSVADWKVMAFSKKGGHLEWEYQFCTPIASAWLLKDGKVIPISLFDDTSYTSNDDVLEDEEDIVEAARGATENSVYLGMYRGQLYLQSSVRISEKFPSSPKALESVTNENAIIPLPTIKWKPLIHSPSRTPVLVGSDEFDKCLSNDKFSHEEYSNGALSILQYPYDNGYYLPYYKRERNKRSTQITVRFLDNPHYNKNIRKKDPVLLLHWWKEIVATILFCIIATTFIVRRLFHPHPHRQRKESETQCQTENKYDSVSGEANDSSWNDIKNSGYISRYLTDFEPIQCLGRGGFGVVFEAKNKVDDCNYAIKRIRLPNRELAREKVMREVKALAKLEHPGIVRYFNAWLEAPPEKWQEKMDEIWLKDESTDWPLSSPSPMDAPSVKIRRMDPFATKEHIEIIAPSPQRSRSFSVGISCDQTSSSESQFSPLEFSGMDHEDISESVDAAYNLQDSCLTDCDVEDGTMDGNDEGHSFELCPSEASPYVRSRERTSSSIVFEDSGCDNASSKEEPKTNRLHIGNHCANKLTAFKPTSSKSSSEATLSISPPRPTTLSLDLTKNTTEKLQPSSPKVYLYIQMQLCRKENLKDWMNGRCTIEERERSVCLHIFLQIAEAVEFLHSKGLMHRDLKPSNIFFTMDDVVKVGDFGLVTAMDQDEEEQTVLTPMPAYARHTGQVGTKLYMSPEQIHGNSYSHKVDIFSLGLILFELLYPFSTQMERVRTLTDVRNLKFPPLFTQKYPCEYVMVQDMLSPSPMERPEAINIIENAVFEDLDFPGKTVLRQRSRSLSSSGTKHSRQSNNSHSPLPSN
Experiment: PERK enzyme assay (HTRF)
Type: biochemical
Conditions: at least one experimental run
Experimental: Compounds of the invention were assayed for PERK enzyme inhibitory activity with modifications to previously reported conditions (Axten et al. J. Med. Chem., 2012, 55, 7193-7207). Briefly, various concentrations of compounds (maximum 1% DMSO) were dispensed into 384-well plates containing GST-PERK enzyme. After 30-60 minutes of compound pre-incubation, ATP and biotin-eIF2α were added and after 60 minutes the reaction was quenched. After 2 hrs, a fluorescence plate reader was used to measure inhibition and IC50s were calculated.
Enzyme Assay Protocol for PKR-Like Endoplasmic Reticulum Kinase (PERK)—HTRF —% Inhibition
Assay Buffer contains HEPES (pH7.5) 10 mM, CHAPS 2 mM, MgCl2 5 mM and DTT 1 mM in water
Detection Buffer contains HEPES (pH7.5) 10 mM and CHAPS 2 mM in water Assay Plate Preparation:
1. Enzyme Preparation: • 4× Enzyme solution was prepared immediately prior to adding to compound plates. • 3 nM of GST-PERK in Assay buffer. Final [PERK] in 10 μl assay volume=0.75 nM
2. Substrate Preparation: • 4× Substrate solution was prepared immediately prior to adding to compound plates. • 4× Substrate solution in assay buffer 2000 μM ATP and 160 nM Biotin-eIF2α • Final [ATP] in 10 μl assay volume=500 μM • Final [biotin-eIF2a] in 10 μl assay volume=40 nM.
3. Quench/Detection Solution: • 16 nM eIF2 Phospho-Antibody • 16 nM Eu anti-Rabbit IgG • 160 nM Streptavidin-APC • 60 mM EDTA • Final concentration in 10 μL assay volume: 4 nM eIF2 Phospho-Antibody, 4 nM Eu anti-Rabbit IgG 40 nM Streptavidin-APC
The activity of compounds in the PERK enzyme assay was determined at PERK Enzyme (500 μM ATP) IC50 (nM).

[1] = PERK Enzyme (500 μM ATP) IC50, read-out: PERK Activity

CCN1C(=O)N(c2ccc(-c3cn(C)c4ncnc(N)c34)c(F)c2)CC1c1cccc(C)n1 (stereo not drawn) [Example 50, 1-(4-(4-amino-7-methyl-7H-pyrrolo[2,3-d]pyrimidin-5-yl)-3-fluorophenyl)-3-ethyl-4-(6-methylpyridin-2-yl)imidazolidin-2-one]
IC50 [1]: 100 to 1000 nM

CCN1C(=O)N(c2ccc(-c3cn(C4CC4)c4ncnc(N)c34)c(F)c2)CC1c1ccc(F)cc1F (stereo not drawn) [Example 107, 1-(4-(4-amino-7-cyclopropyl-7H-pyrrolo[2,3-d]pyrimidin-5-yl)-3-fluorophenyl)-4-(2,4-difluorophenyl)-3-ethylimidazolidin-2-one]
IC50 [1]: < 100 nM

COc1cccc(C2CN(c3ccc(-c4cn(C)c5ncnc(N)c45)c(F)c3)C(=O)N2C)c1 (stereo not drawn) [Example 102, 1-(4-(4-amino-7-methyl-7H-pyrrolo[2,3-d]pyrimidin-5-yl)-3-fluorophenyl)-4-(3-methoxyphenyl)-3-methylimidazolidin-2-one]
IC50 [1]: 100 to 1000 nM

CN1C(=O)N(c2ccc(-c3cn(C)c4ncnc(N)c34)c(F)c2)CC1c1cc(F)cc(F)c1 (single isomer, unassigned) [Example 101, 1-(4-(4-amino-7-methyl-7H-pyrrolo[2,3-d]pyrimidin-5-yl)-3-fluorophenyl)-4-(3,5-difluorophenyl)-3-methylimidazolidin-2-one]
IC50 [1]: 100 to 1000 nM

CCN1C(=O)N(c2ccc(-c3cn(C)c4ncnc(N)c34)c(F)c2)CC1c1cc(F)cc(C(F)(F)F)c1 (stereo not drawn) [Example 85, 1-(4-(4-amino-7-methyl-7H-pyrrolo[2,3-d]pyrimidin-5-yl)-3-fluorophenyl)-3-ethyl-4-(3-fluoro-5-(trifluoromethyl)phenyl)imidazolidin-2-one]
IC50 [1]: 100 to 1000 nM

Cc1nc(N)c2c(-c3ccc(N4CC(c5ccc(F)c(F)c5)N(C)C4=O)cc3F)cn(C)c2n1 (single isomer, unassigned) [Example 80, 1-(4-(4-amino-2,7-dimethyl-7H-pyrrolo[2,3-d]pyrimidin-5-yl)-3-fluorophenyl)-4-(3,4-difluorophenyl)-3-methylimidazolidin-2-one]
IC50 [1]: < 100 nM

Cc1nc(N)c2c(-c3ccc(N4CC(c5ccc(F)cc5F)N(C)C4=O)cc3F)nn(C)c2n1 (single isomer, unassigned) [Example 13, 1-(4-(4-amino-1,6-dimethyl-1H-pyrazolo[3,4-d]pyrimidin-3-yl)-3-fluorophenyl)-4-(2,4-difluorophenyl)-3-methylimidazolidin-2-one]
IC50 [1]: > 1000 nM

CN1C(=O)N(c2ccc(-c3cn(C4CC4)c4ncnc(N)c34)c(F)c2)CC1c1ccc(Cl)cc1 (single isomer, unassigned) [Example 168, 1-(4-(4-amino-7-cyclopropyl-7H-pyrrolo[2,3-d]pyrimidin-5-yl)-3-fluorophenyl)-4-(4-chlorophenyl)-3-methylimidazolidin-2-one]
IC50 [1]: < 100 nM

COc1cccc(C2CN(c3ccc(-c4cn(C)c5ncnc(N)c45)c(F)c3)C(=O)N2C)c1 (single isomer, unassigned) [Example 103, 1-(4-(4-amino-7-methyl-7H-pyrrolo[2,3-d]pyrimidin-5-yl)-3-fluorophenyl)-4-(3-methoxyphenyl)-3-methylimidazolidin-2-one]
IC50 [1]: < 100 nM

CN1C(=O)N(c2ccc(-c3cn(C)c4ncnc(N)c34)c(F)c2)CC1c1ccc2c(c1)CCO2 (single isomer, unassigned) [Example 169, 1-(4-(4-amino-7-methyl-7H-pyrrolo[2,3-d]pyrimidin-5-yl)-3-fluorophenyl)-4-(2,3-dihydrobenzofuran-5-yl)-3-methylimidazolidin-2-one]
IC50 [1]: < 100 nM

Cc1cc(N2CC(c3cc(F)cc(F)c3)N(C)C2=O)ccc1-c1cn(C2CC2)c2ncnc(N)c12 (stereo not drawn) [Example 119, 1-(4-(4-amino-7-cyclopropyl-7H-pyrrolo[2,3-d]pyrimidin-5-yl)-3-methylphenyl)-4-(3,5-difluorophenyl)-3-methylimidazolidin-2-one]
IC50 [1]: < 100 nM

CCN1C(=O)N(c2ccc(-c3cn(C)c4ncnc(N)c34)c(F)c2)CC1c1cc(F)cc(C(F)(F)F)c1 (single isomer, unassigned) [Example 89, 1-(4-(4-amino-7-methyl-7H-pyrrolo[2,3-d]pyrimidin-5-yl)-3-fluorophenyl)-3-ethyl-4-(3-fluoro-5-(trifluoromethyl)phenyl)imidazolidin-2-one]
IC50 [1]: 100 to 1000 nM

CCN1C(=O)N(c2ccc(-c3csc4ncnc(N)c34)c(F)c2)CC1c1cc(F)ccc1F (stereo not drawn) [Example 42, 1-(4-(4-aminothieno[2,3-d]pyrimidin-5-yl)-3-fluorophenyl)-4-(2,5-difluorophenyl)-3-ethylimidazolidin-2-one]
IC50 [1]: 100 to 1000 nM

Cc1nc(N)c2c(-c3ccc(N4CC(c5ccc(F)cc5F)N(C)C4=O)cc3F)nn(C)c2n1 (single isomer, unassigned) [Example 12, 1-(4-(4-amino-1,6-dimethyl-1H-pyrazolo[3,4-d]pyrimidin-3-yl)-3-fluorophenyl)-4-(2,4-difluorophenyl)-3-methylimidazolidin-2-one]
IC50 [1]: < 100 nM

CN1C(=O)N(c2ccc(-c3cn(C4CC4)c4ncnc(N)c34)c(F)c2)CC1c1ccc(F)cc1F (single isomer, unassigned) [Example 154, 1-(4-(4-amino-7-cyclopropyl-7H-pyrrolo[2,3-d]pyrimidin-5-yl)-3-fluorophenyl)-4-(2,4-difluorophenyl)-3-methylimidazolidin-2-one]
IC50 (500 μM ATP, read-out: PERK Enzyme (500 μM ATP) IC50): 988 nM | IC50 [1]: 100 to 1000 nM

CN1C(=O)N(c2ccc(-c3cn(C)c4ncnc(N)c34)c(F)c2)CC1c1c(F)cccc1F (stereo not drawn) [Example 81, 1-(4-(4-amino-7-methyl-7H-pyrrolo[2,3-d]pyrimidin-5-yl)-3-fluorophenyl)-4-(2,6-difluorophenyl)-3-methylimidazolidin-2-one]
IC50 [1]: < 100 nM

CN1C(=O)N(c2ccc(-c3cn(C)c4ncnc(N)c34)c(F)c2)CC1c1ccc(F)c(F)c1 (stereo not drawn) [Example 96, 1-(4-(4-amino-7-methyl-7H-pyrrolo[2,3-d]pyrimidin-5-yl)-3-fluorophenyl)-4-(3,4-difluorophenyl)-3-methylimidazolidin-2-one]
IC50 [1]: < 100 nM

CN1C(=O)N(c2ccc(-c3cn(C)c4ncnc(N)c34)c(F)c2)CC1c1cc(F)cc(Cl)c1 (single isomer, unassigned) [Example 52, 1-(4-(4-amino-7-methyl-7H-pyrrolo[2,3-d]pyrimidin-5-yl)-3-fluorophenyl)-4-(3-chloro-5-fluorophenyl)-3-methylimidazolidin-2-one]
IC50 [1]: 100 to 1000 nM

CN1C(=O)N(c2ccc(-c3cn(C4CC4)c4ncnc(N)c34)c(F)c2)CC1c1cccc(F)c1 (single isomer, unassigned) [Example 125, 1-(4-(4-amino-7-cyclopropyl-7H-pyrrolo[2,3-d]pyrimidin-5-yl)-3-fluorophenyl)-4-(3-fluorophenyl)-3-methylimidazolidin-2-one]
IC50 [1]: < 100 nM

CCN1C(=O)N(c2ccc(-c3cn(C4CC4)c4ncnc(N)c34)c(F)c2)CC1c1cc(F)cc(F)c1 (single isomer, unassigned) [Example 174, 1-(4-(4-amino-7-cyclopropyl-7H-pyrrolo[2,3-d]pyrimidin-5-yl)-3-fluorophenyl)-4-(3,5-difluorophenyl)-3-ethylimidazolidin-2-one]
IC50 [1]: < 100 nM
